The values below come from article PMC10580381 (ACS Pharmacology & Translational Science, 2023).

The subject of data set [1] is H1975 cells. The note with it: flunarizine alone 5 or 10 μM, 24 h (Figure 3). How it is done: Afterward, ethanol was discarded, and the fixed cells were incubated with RNase I (25 μg/mL) at 37 °C for 30 min. Then, the cells were stained with propidium iodide (50 μg/mL) at room temperature for at least 1 h and analyzed by using a flow cytometer (BD LSRFortessa; BD Biosciences). At least 10,000 events were acquired for each sample. ModFit software (Verity Software House, Topsham, Maine) was used to analyze the cell cycle profile.

The test system of data set [2] is E-cadherin. Kind of data set: Western blot of E-cadherin in H1975 cells. Type of data set: cell-based, human. Conditions: concentration-dependent. (Immunoblotting shows a protein as a band on a membrane.)
Data set [3] addresses T1, recombinant human HDAC2 (Homo sapiens, UniProt Q92769).
T1 construct: purchased Creative Biomart
Kind of data set: Biochemical HDAC activity assay, recombinant HDAC2. Conditions: recombinant HDAC2, mean ± SD, three independent experiments.

Data set [4] has as its system H820 cells. In words: cells. The note with it: Homo sapiens, NCI-H820, read-out: cell viability (%).
The target of data set [5] is T2, recombinant human HDAC8 (Homo sapiens, UniProt Q9BY41).
T2 sequence (Q9BY41 1-377): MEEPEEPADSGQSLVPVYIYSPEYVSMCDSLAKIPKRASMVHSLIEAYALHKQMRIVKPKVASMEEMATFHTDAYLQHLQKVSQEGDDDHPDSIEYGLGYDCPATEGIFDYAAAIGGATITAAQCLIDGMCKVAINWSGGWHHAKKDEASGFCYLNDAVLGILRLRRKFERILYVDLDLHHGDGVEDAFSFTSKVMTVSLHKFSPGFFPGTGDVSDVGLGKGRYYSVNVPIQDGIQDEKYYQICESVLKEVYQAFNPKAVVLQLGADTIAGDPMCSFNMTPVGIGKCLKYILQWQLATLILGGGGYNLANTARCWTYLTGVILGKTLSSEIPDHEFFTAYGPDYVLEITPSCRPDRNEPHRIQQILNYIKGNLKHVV
In words: biochemical.

The subject of data set [6] is p27^Kip1 (CDKN1B). Kind of data set: Real-time PCR of p27^Kip1 expression in H1975. Type of data set: cell-based, human. Conditions: H1975, 24 h, flunarizine 2.5, 5, or 10 μM or SAHA 0.25, 0.5, or 1 μM; all concentrations tested. How it is done:
(§1) Reverse transcription was performed using 1 μg of total RNA sample with the PrimeScript First Strand cDNA Synthesis Kit (TaKaRa Biomedical Technology) at 37 °C for 10 min. The cDNA was then amplified by real-time PCR to determine the relative expression of p27^Kip1 and BIM using the KAPA SYBR FAST qPCR kit (KapaBiosystems, Wilmington, Massachusetts) with a LightCycler 480 Instrument I instrument (Roche Applied Science, Indianapolis, Indiana). The house-keeping gene GAPDH was also measured for normalization. Specific primer sequences used in the PCR reactions are p27^Kip1, forward 5′-[…]-3′ and reverse 5′-[…]-3′; Bim, forward 5′-[…]-3′ and reverse 5′-[…]-3′; and GAPDH, forward 5′-[…]-3′ and reverse 5′-[…]-3′. The PCR temperature program was set at 95 °C for 5 min, followed by 35 cycles of 95 °C for 10 s and 60 °C for 10 s. The fluorescent signal was detected at the end of the PCR elongation step of every cycle to keep track of the amount of amplified DNA. ΔCt was calculated by subtracting the Ct of GAPDH from the Ct of Bim or p27^Kip1. Fold change in gene expression was analyzed by the 2^–ΔΔCt method.
(In general: Real-time PCR tracks product formation cycle by cycle.)

The subject of data set [7] is vimentin. In words: Western blot of vimentin in H1975 cells. Format: cell-based, human. The note with it: concentration-dependent.
Data set [8] deals with H1650 cells. Kind of data set: cells. Conditions: Homo sapiens, NCI-H1650, read-out: cell viability (%).
The subject of data set [9] is Bim (BCL2L11). In words: Real-time PCR of Bim expression in H1975. Conditions: H1975, 24 h, flunarizine 2.5, 5, or 10 μM or SAHA 0.25, 0.5, or 1 μM; all concentrations tested. Format: cell-based, human. How it is done:
as §1

In data set [10] the test system is H820 cells.
The target in data set [11] is T3, recombinant human HDAC6 (Homo sapiens, UniProt Q9UBN7).
T3 sequence (Q9UBN7 1-1215): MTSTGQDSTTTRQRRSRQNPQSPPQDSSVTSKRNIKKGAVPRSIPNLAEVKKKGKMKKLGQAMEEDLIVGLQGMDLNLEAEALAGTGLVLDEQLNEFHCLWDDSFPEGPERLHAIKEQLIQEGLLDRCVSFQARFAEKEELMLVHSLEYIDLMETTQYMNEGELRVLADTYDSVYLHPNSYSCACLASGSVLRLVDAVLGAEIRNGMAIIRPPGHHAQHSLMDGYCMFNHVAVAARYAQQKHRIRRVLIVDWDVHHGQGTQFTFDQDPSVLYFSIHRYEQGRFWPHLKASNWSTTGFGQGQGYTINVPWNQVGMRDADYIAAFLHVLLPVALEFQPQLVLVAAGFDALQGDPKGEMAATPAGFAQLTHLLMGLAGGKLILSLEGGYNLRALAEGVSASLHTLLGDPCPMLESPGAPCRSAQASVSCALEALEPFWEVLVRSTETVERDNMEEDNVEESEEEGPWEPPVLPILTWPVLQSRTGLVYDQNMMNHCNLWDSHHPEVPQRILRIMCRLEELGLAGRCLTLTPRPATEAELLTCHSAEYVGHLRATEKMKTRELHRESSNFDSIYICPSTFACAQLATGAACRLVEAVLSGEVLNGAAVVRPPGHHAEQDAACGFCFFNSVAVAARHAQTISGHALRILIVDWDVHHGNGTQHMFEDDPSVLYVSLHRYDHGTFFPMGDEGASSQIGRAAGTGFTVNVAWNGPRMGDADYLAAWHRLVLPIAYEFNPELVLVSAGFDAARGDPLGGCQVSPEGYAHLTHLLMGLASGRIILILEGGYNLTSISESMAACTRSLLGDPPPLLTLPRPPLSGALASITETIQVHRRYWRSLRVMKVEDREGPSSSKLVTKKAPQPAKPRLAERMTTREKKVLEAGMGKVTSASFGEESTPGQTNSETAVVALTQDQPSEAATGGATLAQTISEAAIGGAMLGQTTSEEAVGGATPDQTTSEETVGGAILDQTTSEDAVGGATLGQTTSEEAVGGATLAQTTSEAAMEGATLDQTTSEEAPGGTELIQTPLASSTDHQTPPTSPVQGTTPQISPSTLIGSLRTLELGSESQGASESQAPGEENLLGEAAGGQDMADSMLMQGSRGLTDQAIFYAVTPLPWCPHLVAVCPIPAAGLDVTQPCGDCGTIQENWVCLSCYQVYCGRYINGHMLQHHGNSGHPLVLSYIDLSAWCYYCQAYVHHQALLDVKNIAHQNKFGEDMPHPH
Kind of data set: biochemical. Conditions: IC50 HDAC6, recombinant HDAC6, mean ± SD, three independent experiments.

Molecules are shown by their SMILES. Where “and” joins values, the source holds several entries; their conditions need not be identical. Equal values may be shown once.

T1 sequence (Q92769 whole entry): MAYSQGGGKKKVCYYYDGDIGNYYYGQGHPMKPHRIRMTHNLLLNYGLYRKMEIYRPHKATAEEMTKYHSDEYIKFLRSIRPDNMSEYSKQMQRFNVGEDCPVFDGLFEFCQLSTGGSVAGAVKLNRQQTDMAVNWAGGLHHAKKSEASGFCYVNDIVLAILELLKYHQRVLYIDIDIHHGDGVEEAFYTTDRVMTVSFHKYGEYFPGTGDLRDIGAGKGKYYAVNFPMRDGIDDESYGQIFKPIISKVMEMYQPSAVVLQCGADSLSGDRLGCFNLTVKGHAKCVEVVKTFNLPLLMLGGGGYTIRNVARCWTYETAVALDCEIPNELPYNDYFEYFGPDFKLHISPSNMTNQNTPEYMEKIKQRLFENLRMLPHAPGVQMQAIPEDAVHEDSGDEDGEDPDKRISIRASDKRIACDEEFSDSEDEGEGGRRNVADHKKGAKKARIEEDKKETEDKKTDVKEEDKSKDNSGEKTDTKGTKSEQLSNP

Broadly, the IC50 is the concentration that inhibits the measured activity by half. One may read the viability as a read-out of living cells in per cent, often relative to untreated cells. With `Fc1ccc(C(c2ccc(F)cc2)N2CCN(C/C=C/c3ccccc3)CC2)cc1` [flunarizine], the “G1 cell cycle arrest” value in [1] is given as “induce G1 cell cycle arrest”. Further, the E-cadherin expression entry in data set [2] is “upregulate”. Further, the IC50 in [3] was 360 ± 26 nM; in [5] it was 5.5 ± 0.45 µM; in [11], ~5.6 µM and 5.6 µM. Moreover, the figures for the viability at 2.5 µM in [4] and in data set [8] were 103 ± 5% and 93 ± 4%, respectively. Also, the viability at 5 µM in [4] came to 94 ± 7%; in data set [8], 92 ± 5%. Also, in [6], the “p27^Kip1 expression” value is “significantly increase”. Besides, the vimentin expression result in data set [7] was “downregulate”. For the same compound, in [8], the viability at 10 µM was 87 ± 6%. Moreover, the Bim expression entry in data set [9] is given as “significantly increase”. In data set [10], the viability worked out at 89 ± 5%.
